How the values were obtained:
velvetleaf = test: Test B pre/postemergence velvetleaf; type: in vivo, Abutilon theophrasti
How it was run: (§1)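 Response is a visual 0-to-10 score relative to untreated plants, where 0 means no effect and 10 means complete control, taken twelve to sixteen days after application. Treatments went onto soil at planting and onto foliage of 1- to 4-leaf plants, using a surfactant-containing non-phytotoxic solvent.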

crabgrass = test: Test B pre/postemergence crabgrass; type: in vivo, Digitaria sanguinalis
How it was run: as §1

blackgrass = test: Test B pre/postemergence blackgrass; type: in vivo, Alopecurus myosuroides
How it was run: as §1

surinam grass = test: Test B pre/postemergence surinam grass; type: in vivo, Brachiaria decumbens
How it was run: as §1

rape = test: Test B pre/postemergence rape; type: in vivo, Brassica napus
How it was run: as §1

wheat = test: Test B pre/postemergence wheat; type: in vivo, Triticum aestivum
How it was run: as §1

pigweed = test: Test B pre/postemergence pigweed; type: in vivo, Amaranthus retroflexus
How it was run: as §1

wild oat = test: Test B pre/postemergence wild oat; type: in vivo, Avena fatua
How it was run: as §1

sugar beet = test: Test B pre/postemergence sugar beet; type: in vivo, Beta vulgaris
How it was run: as §1

bedstraw = test: Test B pre/postemergence bedstraw; type: in vivo, Galium aparine
How it was run: as §1

cocklebur = test: Test B pre/postemergence cocklebur; type: in vivo, Xanthium strumarium
How it was run: as §1

soybean = test: Test B pre/postemergence soybean; type: in vivo, Glycine max
How it was run: as §1

purple nutsedge = test: Test B pre/postemergence purple nutsedge; type: in vivo, Cyperus rotundus
How it was run: as §1

giant foxtail = test: Test B pre/postemergence giant foxtail; type: in vivo, Setaria faberii
How it was run: as §1

bamyardgrass = test: Test B flood test barnyardgrass; type: in vivo, Echinochloa crus-galli
How it was run: (§2)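 Each value is a visual injury score relative to controls, with 10 meaning complete control and 0 no effect. Evaluation took place twelve to sixteen days after the 2-leaf-stage plants were treated and kept in the greenhouse.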

duck salad = test: Test B flood test duck salad; type: in vivo, Heteranthera limosa
How it was run: as §2

corn = test: Test B pre/postemergence corn; type: in vivo, Zea mays
How it was run: as §1

smallflower flatsedge = test: Test B flood test smallflower flatsedge; type: in vivo, Cyperus difformis
How it was run: as §2

morningglory = test: Test B pre/postemergence morningglory; type: in vivo, Ipomoea hederacea
How it was run: as §1

rice = test: Test B flood test rice; type: in vivo, Oryza sativa
How it was run: as §2

[1] = Postemergence, Rate 62 g/ha, scale 0 to 10, 0 is no effect, 10 is complete control
[2] = Postemergence, Rate 125 g/ha, scale of 0 to 10 where 0 is no effect and 10 is complete control
[3] = Postemergence, Rate 250 g/ha, scale of 0 to 10, 0 is no effect, 10 is complete control
[4] = Postemergence, Rate 500 g/ha, scale of 0 to 10 where 0 is no effect and 10 is complete control
[5] = Preemergence, Rate 62 g/ha, scale 0 to 10 (0 no effect, 10 complete control)
[6] = Preemergence, Rate 125 g/ha, scale of 0 to 10 where 0 is no effect and 10 is complete control
[7] = Preemergence, Rate 500 g/ha, scale of 0 to 10 where 0 is no effect and 10 is complete control
[8] = Rate 62 g/ha, flood test species, Pre-emergence, visual evaluation after twelve to sixteen days
[9] = Rate 125 g/ha, under heading Pre-emergence, flood test species, visual evaluation after twelve to sixteen days
[10] = Rate 250 g/ha, Pre-emergence (flood test species), scale 0 to 10, 0 is no effect, 10 is complete control
[11] = Rate 500 g/ha, Pre-emergence section of Table B, 0 to 10 scale (0 no effect, 10 complete control)

CCC(C)n1c(=O)on(C(=O)N(c2ccccc2)C(C)C)c1=O (stereo not drawn) [Compound 612]
Plant response rating, Velvetleaf (velvetleaf; [1]): 2 | Plant response rating, Velvetleaf (velvetleaf; [2]): 3 | Velvetleaf plant response rating (velvetleaf; [3]): 3 | Plant response rating, Velvetleaf (velvetleaf; [4]): 6 | Velvetleaf plant response rating (velvetleaf; [5]): 6 | Velvetleaf plant response rating (velvetleaf; [6]): 7 | Plant response rating, Velvetleaf (velvetleaf; [7]): 8 | Plant response rating, Crabgrass (crabgrass; [1]): 4 | Plant response rating, Crabgrass (crabgrass; [2]): 8 | Crabgrass plant response rating (crabgrass; [3]): 9 | Plant response rating, Crabgrass (crabgrass; [4]): 10 | Crabgrass plant response rating (crabgrass; [5]): 10 | Crabgrass plant response rating (crabgrass; [6]): 10 | Plant response rating, Crabgrass (crabgrass; [7]): 10 | Plant response rating, Blackgrass (blackgrass; [1]): 7 | Plant response rating, Blackgrass (blackgrass; [2]): 9 | Blackgrass plant response rating (blackgrass; [3]): 9 | Plant response rating, Blackgrass (blackgrass; [4]): 10 | Blackgrass plant response rating (blackgrass; [5]): 8 | Blackgrass plant response rating (blackgrass; [6]): 10 | Blackgrass plant response rating (0 to 10 scale) (blackgrass; Preemergence, Rate 250 g/ha): 10 | Blackgrass plant response rating (blackgrass; [7]): 10 | Plant response rating, B. signalgrass (surinam grass; [1]): 1 | Plant response rating, B. signalgrass (surinam grass; [2]): 3 | B. signalgrass plant response rating (surinam grass; [3]): 7 | Plant response rating, B. signalgrass (surinam grass; [4]): 9 | B. signalgrass plant response rating (surinam grass; [5]): 4 | B. signalgrass plant response rating (surinam grass; [6]): 7 | B. signalgrass plant response rating (0 to 10 scale, 0 is no effect, 10 is complete control) (surinam grass; Preemergence, Rate 250 g/ha): 10 | B. signalgrass plant response rating (surinam grass; [7]): 10 | Plant response rating, Rape (rape; [1]): 0 | Plant response rating, Rape (rape; [2]): 0 | Rape plant response rating (rape; [3]): 0 | Plant response rating, Rape (rape; [4]): 7 | Rape plant response rating (rape; [5]): 0 | Rape plant response rating (rape; [6]): 3 | Plant response rating, Rape (rape; [7]): 10 | Plant response rating, Wheat (wheat; [1]): 0 | Plant response rating, Wheat (wheat; [2]): 2 | Wheat plant response rating (wheat; [3]): 2 | Plant response rating, Wheat (wheat; [4]): 5 | Wheat plant response rating (wheat; [5]): 0 | Wheat plant response rating (wheat; [6]): 3 | Plant response rating, Wheat (wheat; [7]): 8 | Plant response rating, Redroot pigweed (pigweed; [1]): 0 | Plant response rating, Redroot pigweed (pigweed; [2]): 2 | Redroot pigweed plant response rating (pigweed; [3]): 4 | Plant response rating, Redroot pigweed (pigweed; [4]): 7 | Redroot pigweed plant response rating (pigweed; [5]): 8 | Redroot pigweed plant response rating (pigweed; [6]): 10 | Plant response rating, Redroot pigweed (pigweed; [7]): 10 | Plant response rating, Wild oats (wild oat; [1]): 0 | Plant response rating, Wild oats (wild oat; [2]): 6 | Wild oats plant response rating (wild oat; [3]): 6 | Plant response rating, Wild oats (wild oat; [4]): 9 | Wild oats plant response rating (wild oat; [5]): 5 | Wild oats plant response rating (wild oat; [6]): 9 | Plant response rating, Wild oats (wild oat; [7]): 10 | Plant response rating, Sugarbeets (sugar beet; [1]): 0 | Plant response rating, Sugarbeets (sugar beet; [2]): 0 | Sugarbeets plant response rating (sugar beet; [3]): 0 | Plant response rating, Sugarbeets (sugar beet; [4]): 1 | Sugarbeets plant response rating (sugar beet; [5]): 3 | Sugarbeets plant response rating (sugar beet; [6]): 5 | Plant response rating, Sugarbeets (sugar beet; [7]): 7 | Plant response rating, Bedstraw (bedstraw; [1]): 3 | Bedstraw plant response rating (bedstraw; [3]): 6 | Plant response rating, Bedstraw (bedstraw; [4]): 9 | Bedstraw plant response rating (bedstraw; [7]): 10 | Plant response rating, Cocklebur (cocklebur; [1]): 0 | Plant response rating, Cocklebur (cocklebur; [2]): 0 | Cocklebur plant response rating (cocklebur; [3]): 0 | Plant response rating, Cocklebur (cocklebur; [4]): 2 | Cocklebur plant response rating (cocklebur; [5]): 0 | Cocklebur plant response rating (cocklebur; [6]): 0 | Cocklebur plant response rating (0 to 10 scale) (cocklebur; Preemergence, Rate 250 g/ha): 0 | Plant response rating, Cocklebur (cocklebur; [7]): 0 | Plant response rating, Soybean (soybean; [1]): 4 | Plant response rating, Soybean (soybean; [2]): 5 | Soybean plant response rating (soybean; [3]): 7 | Plant response rating, Soybean (soybean; [4]): 8 | Soybean plant response rating (soybean; [5]): 0 | Soybean plant response rating (soybean; [6]): 0 | Plant response rating, Soybean (soybean; [7]): 3 | Plant response rating, Nutsedge (purple nutsedge; [1]): 0 | Plant response rating, Nutsedge (purple nutsedge; [2]): 0 | Nutsedge plant response rating (purple nutsedge; [3]): 0 | Plant response rating, Nutsedge (purple nutsedge; [4]): 2 | Nutsedge plant response rating (purple nutsedge; [5]): 0 | Nutsedge plant response rating (purple nutsedge; [6]): 0 | Plant response rating, Nutsedge (purple nutsedge; [7]): 3 | Plant response rating, Giant foxtail (giant foxtail; [1]): 7 | Plant response rating, Giant foxtail (giant foxtail; [2]): 9 | Giant foxtail plant response rating (giant foxtail; [3]): 9 | Plant response rating, Giant foxtail (giant foxtail; [4]): 9 | Giant foxtail plant response rating (giant foxtail; [5]): 10 | Giant foxtail plant response rating (giant foxtail; [6]): 10 | Plant response rating, Giant foxtail (giant foxtail; [7]): 10 | Plant response rating, Barnyardgrass (0 to 10 scale, 0 is no effect, 10 is complete control) (bamyardgrass; [8]): 0 | Barnyardgrass plant response rating (0 to 10 scale, 0 is no effect, 10 is complete control) (bamyardgrass; [9]): 0 | Barnyardgrass plant response rating (bamyardgrass; [10]): 0 | Barnyardgrass plant response rating (bamyardgrass; [11]): 0 | Plant response rating, Ducksalad (0 to 10 scale, 0 is no effect, 10 is complete control) (duck salad; [8]): 0 | Ducksalad plant response rating (0 to 10 scale, 0 is no effect, 10 is complete control) (duck salad; [9]): 0 | Ducksalad plant response rating (duck salad; [10]): 0 | Ducksalad plant response rating (duck salad; [11]): 0 | Plant response rating, Corn (corn; [1]): 0 | Plant response rating, Corn (corn; [2]): 0 | Corn plant response rating (corn; [3]): 0 | Plant response rating, Corn (corn; [4]): 0 | Corn plant response rating (corn; [5]): 0 | Corn plant response rating (corn; [6]): 3 | Corn plant response rating (0 to 10 scale) (corn; Preemergence, Rate 250 g/ha): 8 | Plant response rating, Corn (corn; [7]): 9 | Plant response rating, S. Flatsedge (0 to 10 scale, 0 is no effect, 10 is complete control) (smallflower flatsedge; [8]): 0 | S. Flatsedge plant response rating (0 to 10 scale, 0 is no effect, 10 is complete control) (smallflower flatsedge; [9]): 0 | S. Flatsedge plant response rating (smallflower flatsedge; [10]): 0 | S. Flatsedge plant response rating (smallflower flatsedge; [11]): 0 | Plant response rating, Morningglory (morningglory; [1]): 5 | Plant response rating, Morningglory (morningglory; [2]): 8 | Morningglory plant response rating (morningglory; [3]): 8 | Plant response rating, Morningglory (morningglory; [4]): 10 | Morningglory plant response rating (morningglory; [5]): 0 | Morningglory plant response rating (morningglory; [6]): 0 | Plant response rating, Morningglory (morningglory; [7]): 10 | Plant response rating, Rice (0 to 10 scale, 0 is no effect, 10 is complete control) (rice; [8]): 0 | Rice plant response rating (0 to 10 scale, 0 is no effect, 10 is complete control) (rice; [9]): 0 | Rice plant response rating (rice; [10]): 0 | Rice plant response rating (rice; [11]): 0

Reference: patent US6737383B1, “Herbicidal oxadiazolidines” (priority 1999, dated 2004)
